Columns and labels:
GSK-3β [1] = target: T1, GSK-3β (Homo sapiens, UniProt P49841); assay: in vitro kinase assay with recombinant GSK-3β and immunoprecipitated N protein as substrate, single concentration ([…]); type: biochemical
T1 construct: gene GSK3B; human recombinant GSK-3β

GSK-3β [2] = target: T1, GSK-3β; assay: in vitro kinase assay with recombinant GSK-3β; tau or immunoprecipitated N protein as substrate, gel mobility shift; type: biochemical

T1 sequence (P49841 whole entry): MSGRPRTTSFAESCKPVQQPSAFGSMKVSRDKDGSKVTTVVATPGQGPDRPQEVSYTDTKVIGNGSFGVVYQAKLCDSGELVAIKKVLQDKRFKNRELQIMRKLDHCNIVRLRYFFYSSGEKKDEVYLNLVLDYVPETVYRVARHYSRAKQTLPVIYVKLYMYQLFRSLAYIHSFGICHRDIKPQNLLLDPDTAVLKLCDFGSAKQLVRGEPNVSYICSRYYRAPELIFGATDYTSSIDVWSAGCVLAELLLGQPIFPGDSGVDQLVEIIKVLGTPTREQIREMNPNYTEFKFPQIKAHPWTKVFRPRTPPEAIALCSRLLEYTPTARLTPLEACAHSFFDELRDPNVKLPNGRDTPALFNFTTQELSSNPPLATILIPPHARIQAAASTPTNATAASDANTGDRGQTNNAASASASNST

Compound | in vitro kinase assay with recombinant GSK-3β and immunoprecipitated N protein a (GSK-3β [1]) [µM] | in vitro kinase assay with recombinant GSK-3β; tau or immunoprecipitated N prote (GSK-3β [2]) [µM]
Cc1c[nH]c(-c2cnc(NCCNc3ccc(C#N)cn3)nc2-c2ccc(Cl)cc2Cl)n1 [CHIR99021] | 2 | 
Cn1cc(C2=C(c3cn(C4CCN(Cc5ccccn5)CC4)c4ccccc34)C(=O)NC2=O)c2ccccc21 [Enzastaurin] |  | 0.5
